Measurements as given in PubChem BioAssay AID2060627 (Molecular Pharmacology Branch, DTP, NCI, 2025).
Values joined by “and” are separate entries in the source; they are usually repeats but may differ in a detail not shown here. Identical values can stand only once. Values belong to the molecule of their own block, whether it stands above or below them.

Test system: 156681-154-R-J1-PDC complex spheroid viability
Experiment: Anticancer human tumor 156681-154-R-J1-PDC patient-derived melanoma cell line growth inhibition [CLK]
Conditions: for viability, T/C: stronger effect = lower value
Source text: A high-throughput screen of multi-cell type tumor spheroids was designed to identify active combinations of […] and targeted small molecules. Complex spheroids include a stromal component modeled by human endothelial cells (HUVEC) and fibroblasts modeled by human mesenchymal stem cells (MSCs). The concentration ranges selected for each drug and investigational agent were based upon clinically achievable concentrations if the clinical Cmax of the agent was known.
Compounds. The drugs and investigational agents: cirtuvivint (SM08502; NSC835563), CC-671 (NSC850746), vemurafenib (NSC761431), tapotoclax (NSC804041), sotorasib (NSC818433), adagrasib (NSC831453), MRTX-1133 (NSC836407), BAY2416964 (NSC825713), copanlisib (NSC816437), inavolisib (NSC800729), abemaciclib (NSC768073), osimertinib (NSC779217), entinostat (NSC756642), eltanexor (KPT-8602, NSC794443), venetoclax (NSC766270), ceralasertib (NSC777638), bortezomib (NSC756655), olaparib (NSC753686), talazoparib (NSC767125), alisertib (NSC759677), peposertib (NSC802822), gemcitabine (NSC613327), 5-fluorouracil (NSC19893), SN-38 (NSC673596), oxaliplatin (NSC266046), paclitaxel (NSC125973), and doxorubicin (NSC123127), were obtained from the National Cancer Institute (NCI) Developmental Therapeutics Program Chemical Repository. The FDA-approved anticancer drug set is available from the Developmental Therapeutics Program at https://dtp.cancer.gov/organization/dscb/obtaining/available plates.htm. […] The stock solutions were prepared in dimethyl sulfoxide (DMSO, Sigma-Aldrich, St. Louis, MO, cat. D2650), except for the platinum complexes which were prepared in saline (Quality Biological, Gaithersburg, MD, cat. 114-055-101), at 800-fold the tested concentration and stored at -70 degrees C prior to their use. All drugs and investigational agents were tested over a range starting from a high concentration at or near the clinical Cmax and decreasing in half-log increments. If the clinical Cmax for an agent had not been determined, the highest concentration tested was 10 microM.
Cell Culture. All cells were maintained in an incubator at 37 degrees C and 5% CO2 with 95% humidity. The PDC lines were cultured according to standard operating procedures established by the NCI PDMR. Briefly, all PDCs were thawed and cultured in Matrigel-coated flasks prepared with a working solution of 1X Ham's F-12 nutrient mix, without supplementation (Invitrogen, Waltham, MA, cat. 11765054), 100 U/mL penicillin-streptomycin (Invitrogen, cat. 15140122), and 2.5% Matrigel (Corning Inc., Corning, NY, cat. 354248) for the first three passages. The 947758-054-R-J2-PDC line was cultured in 6B/Colon 1A media, which includes advanced DMEM/F-12 (Thermo Fisher Scientific, cat. 12634028), 10 mM HEPES (Thermo Fisher Scientific, cat. 15630080), 1X GlutaMAX supplement (Thermo Fisher Scientific, cat. 35050061), 0.1 mg/mL primocin (InvivoGen, cat. ant-pm-2), 10% defined fetal bovine serum, heat inactivated (HyClone Laboratories Inc., cat. SH30070.03HI), 1.25 mM N-Acetyl-L-cysteine (Sigma-Aldrich, cat. A9165), 10 mM nicotinamide (Sigma-Aldrich, cat. N0636), 1X B-27 supplement (Thermo Fisher Scientific, cat. 17504044), 1X N-2 supplement (Thermo Fisher Scientific, cat. 17502048), and 10 microM Y-27632 dihydrochloride (Tocris Bioscience, cat. 1254). The 876862-298-R-J1-PDC was cultured in 6E media, which includes all 6B/Colon 1A media components plus 50% L-WRN conditioned media (ATCC, cat. CRL-3276), 50 ng/mL recombinant human EGF recombinant protein (hEGF; Thermo Fisher Scientific, cat. PHG0311), 10 ng/mL recombinant human fibroblast growth factor 10 (hGFG-10; PeproTech, cat. 100-26), 1 ng/mL recombinant human fibroblast growth factor 2 (hFGF-2; PeproTech, cat. 100-18B), and 1 µM prostaglandin E2 (PGE2; Tocris, cat. 2296). The 227483-062-R1-J1-PDC line was cultured in Panc media, containing all 6E components except hFGF-2, with the addition of 500 nM SB-431542 (Selleckchem, cat. S1067) and 10 nM gastrin (Tocris, cat. 3006). […]

[1] = curve of first compound, second compound 0.0316 µM
[2] = curve of first compound, second compound 0.1 µM
[3] = curve of first compound, second compound 0.316 µM
[4] = curve of first compound, second compound 1 µM
[5] = curve of first compound, second compound 3.16 µM
[6] = curve of first compound, second compound 10 µM
[7] = second compound 0.0316 µM, first compound 0.0316 µM
[8] = second compound 0.0316 µM, first compound 0.1 µM
[9] = second compound 0.0316 µM, first compound 0.316 µM
[10] = second compound 0.0316 µM, first compound 1 µM
[11] = second compound 0.1 µM, first compound 0.0316 µM
[12] = second compound 0.1 µM, first compound 0.1 µM
[13] = second compound 0.1 µM, first compound 0.316 µM
[14] = second compound 0.1 µM, first compound 1 µM
[15] = second compound 0.316 µM, first compound 0.0316 µM
[16] = second compound 0.316 µM, first compound 0.1 µM
[17] = second compound 0.316 µM, first compound 0.316 µM
[18] = second compound 0.316 µM, first compound 1 µM
[19] = second compound 1 µM, first compound 0.0316 µM
[20] = second compound 1 µM, first compound 0.1 µM
[21] = second compound 1 µM, first compound 0.316 µM
[22] = second compound 1 µM, first compound 1 µM
[23] = second compound 3.16 µM, first compound 0.0316 µM
[24] = second compound 3.16 µM, first compound 0.1 µM
[25] = second compound 3.16 µM, first compound 0.316 µM
[26] = second compound 3.16 µM, first compound 1 µM
[27] = second compound 10 µM, first compound 0.0316 µM
[28] = second compound 10 µM, first compound 0.1 µM
[29] = second compound 10 µM, first compound 0.316 µM
[30] = second compound 10 µM, first compound 1 µM
[31] = second compound 0.0316 µM, first compound 3.16 µM
[32] = second compound 0.0316 µM, first compound 10 µM
[33] = second compound 0.1 µM, first compound 3.16 µM
[34] = second compound 0.1 µM, first compound 10 µM
[35] = second compound 0.316 µM, first compound 3.16 µM
[36] = second compound 0.316 µM, first compound 10 µM
[37] = second compound 1 µM, first compound 3.16 µM
[38] = second compound 1 µM, first compound 10 µM
[39] = second compound 3.16 µM, first compound 3.16 µM
[40] = second compound 3.16 µM, first compound 10 µM
[41] = second compound 10 µM, first compound 3.16 µM
[42] = second compound 10 µM, first compound 10 µM
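Further: spheroids exposed to the agents for seven days.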
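Wherever viability, T/C is given: 100% = DMSO vehicle control viability.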

SMILES: CCc1c2c(nc3ccc(O)cc13)-c1cc3c(c(=O)n1C2)COC(=O)[C@]3(O)CC + CN1CCN(c2cc(C(=O)Nc3cc4cc(-c5cnn(C)c5)ccc4cn3)ccn2)CC1
IC50 [1]: < 0.00316 µM | IC50 [2]: < 0.00316 µM | IC50 [3]: < 0.00316 µM | IC50 [4]: < 0.00316 µM | IC50 [5]: < 0.00316 µM | IC50 [6]: < 0.00316 µM | viability, T/C (second compound 0.0316 µM, first compound 0.00316 µM): 42.5% | viability, T/C (second compound 0.0316 µM, first compound 0.01 µM): 14.9% | viability, T/C [7]: 15% | viability, T/C [8]: 16.9% | viability, T/C [9]: 17.2% | viability, T/C [10]: 4.31% | viability, T/C (second compound 0.1 µM, first compound 0.00316 µM): 24.5% | viability, T/C (second compound 0.1 µM, first compound 0.01 µM): 15.2% | viability, T/C [11]: 12.1% | viability, T/C [12]: 16.4% | viability, T/C [13]: 13.9% | viability, T/C [14]: 2.11% | viability, T/C (second compound 0.316 µM, first compound 0.00316 µM): 12.3% | viability, T/C (second compound 0.316 µM, first compound 0.01 µM): 12.3% | viability, T/C [15]: 14.7% | viability, T/C [16]: 5.42% | viability, T/C [17]: 1.97% | viability, T/C [18]: 1.05% | viability, T/C (second compound 1 µM, first compound 0.00316 µM): 0.13% | viability, T/C (second compound 1 µM, first compound 0.01 µM): 0.25% | viability, T/C [19]: 0.33% | viability, T/C [20]: 2.85% | viability, T/C [21]: 2.44% | viability, T/C [22]: 0.97% | viability, T/C (second compound 3.16 µM, first compound 0.00316 µM): 0.1% | viability, T/C (second compound 3.16 µM, first compound 0.01 µM): 2.44% | viability, T/C [23]: 1.86% | viability, T/C [24]: 0.73% | viability, T/C [25]: 1.39% | viability, T/C [26]: 0.88% | viability, T/C (second compound 10 µM, first compound 0.00316 µM): 0.64% | viability, T/C (second compound 10 µM, first compound 0.01 µM): 3.44% | viability, T/C [27]: 2.3% | viability, T/C [28]: 1.35% | viability, T/C [29]: 2.63% | viability, T/C [30]: 2.01%

IC50 (curve of compound): < 0.00316 µM
SMILES: CCc1c2c(nc3ccc(O)cc13)-c1cc3c(c(=O)n1C2)COC(=O)[C@]3(O)CC
viability, T/C (compound 0.00316 µM): 38.3% and 25.9% | viability, T/C (compound 0.01 µM): 16.9% and 13.7% | viability, T/C (compound 0.0316 µM): 15.6% and 16.5% | viability, T/C (compound 0.1 µM): 21.3% and 17.4% | viability, T/C (compound 0.316 µM): 16.8% and 17.7% | viability, T/C (compound 1 µM): 4.59% and 4.21%

IC50 [1]: 5.04 µM | IC50 [2]: 4.19 µM | IC50 [3]: 3.25 µM | IC50 [4]: 1.86 µM | IC50 [5]: < 0.0316 µM | IC50 [6]: < 0.0316 µM
SMILES: CC1(C)CCC(CN2CCN(c3ccc(C(=O)NS(=O)(=O)c4ccc(NCC5CCOCC5)c([N+](=O)[O-])c4)c(Oc4cnc5[nH]ccc5c4)c3)CC2)=C(c2ccc(Cl)cc2)C1 + CNC(=O)c1ccc(Nc2nc(OC3CCCC3)c3c(-c4ccc5nc(C)oc5c4)c[nH]c3n2)c(OC)c1
viability, T/C [7]: 92.9% | viability, T/C [8]: 101% | viability, T/C [9]: 103% | viability, T/C [10]: 96.8% | viability, T/C [31]: 83% | viability, T/C [32]: 1.52% | viability, T/C [11]: 66.6% | viability, T/C [12]: 80% | viability, T/C [13]: 82% | viability, T/C [14]: 70.4% | viability, T/C [33]: 65.8% | viability, T/C [34]: 0.92% | viability, T/C [15]: 67.1% | viability, T/C [16]: 72.9% | viability, T/C [17]: 65.2% | viability, T/C [18]: 74.1% | viability, T/C [35]: 51.2% | viability, T/C [36]: 0.88% | viability, T/C [19]: 59.7% | viability, T/C [20]: 62.7% | viability, T/C [21]: 46.6% | viability, T/C [22]: 57% | viability, T/C [37]: 44.8% | viability, T/C [38]: 2.29% | viability, T/C [23]: 42.6% | viability, T/C [24]: 37.8% | viability, T/C [25]: 36.2% | viability, T/C [26]: 50.4% | viability, T/C [39]: 32.1% | viability, T/C [40]: 1.28% | viability, T/C [27]: 46.6% | viability, T/C [28]: 34.7% | viability, T/C [29]: 39.9% | viability, T/C [30]: 41.4% | viability, T/C [41]: 30.2% | viability, T/C [42]: 0.58%

SMILES: CCCS(=O)(=O)Nc1ccc(F)c(C(=O)c2c[nH]c3ncc(-c4ccc(Cl)cc4)cc23)c1F + CN1CCN(c2cc(C(=O)Nc3cc4cc(-c5cnn(C)c5)ccc4cn3)ccn2)CC1
IC50 [1]: 6.05 µM | IC50 [2]: 4.96 µM | IC50 [3]: < 0.0316 µM | IC50 [4]: < 0.0316 µM | IC50 [5]: < 0.0316 µM | IC50 [6]: < 0.0316 µM | viability, T/C [7]: 95.2% | viability, T/C [8]: 88.7% | viability, T/C [9]: 104% | viability, T/C [10]: 94.7% | viability, T/C [31]: 99.7% | viability, T/C [32]: 13.9% | viability, T/C [11]: 88.3% | viability, T/C [12]: 80.8% | viability, T/C [13]: 76.7% | viability, T/C [14]: 85% | viability, T/C [33]: 74.8% | viability, T/C [34]: 11.3% | viability, T/C [15]: 25.4% | viability, T/C [16]: 19.6% | viability, T/C [17]: 28.6% | viability, T/C [18]: 29.9% | viability, T/C [35]: 24.9% | viability, T/C [36]: 3.74% | viability, T/C [19]: 0.19% | viability, T/C [20]: 0.44% | viability, T/C [21]: 0.19% | viability, T/C [22]: 0.14% | viability, T/C [37]: 0.12% | viability, T/C [38]: 0.13% | viability, T/C [23]: 0.3% | viability, T/C [24]: 0.48% | viability, T/C [25]: 0.11% | viability, T/C [26]: 0.27% | viability, T/C [39]: 3.96% | viability, T/C [40]: 0.11% | viability, T/C [27]: 0.13% | viability, T/C [28]: 1.59% | viability, T/C [29]: 0.27% | viability, T/C [30]: 0.21% | viability, T/C [41]: 3.86% | viability, T/C [42]: 0.17%
